This is an account of results in article PMC4912613, “A broad analysis of resistance development in the malaria parasite” (Nature Communications, 2016).

What all share (format): cell-based
The subject of test [1] is PfCRT-Q352R (parent Dd2). As to the kind of experiment: Cross-resistance EC50 assay, PfCRT-Q352R. The note with it: Plasmodium falciparum, DD2, 72 h, read-out: PfCRT:Q352R (Dd2 Parent) Average EC50. The text has this: (§1) To evaluate potential overlapping activity against known antimalarial drug targets, we performed dose-response studies with each compound against our assembled set of drug-resistant lines and their corresponding parents, in an asexual blood stage proliferation assay (Table 1). Comparisons were made to the drug-sensitive strain 3D7 when a parent was unavailable (TM90C2A, W2 and Dd2). As laboratories conducted EC50 assays with different strains and protocols, all comparisons were made between assays from the same laboratory and under the same assay conditions. Compounds displaying >5-fold EC50 shifts relative to the parent or sensitive strain were flagged as having potentially non-novel targets. Average fold shifts per strain ranged from 0.82 to 2.34, with a median of 1.23 indicating there was not common resistance to any one resistant clone. No resistance patterns were observed when classifying the compounds based on chemical structure, but this was not surprising given the diversity of compounds chosen. On the other hand, given that these confirmed compounds were derived from larger unconfirmed hit lists to which some filtration criteria may have been applied (for example, elimination of obvious dihydrofolate reductase inhibitors[32]), some[10][11][12][13] pre-existing bias may exist in the set. […]
(§2) Alternatively, a SYBR Green-based proliferation approach was used for the 72-h assay, as previously described. Briefly, a culture of either synchronized or asynchronous parasitized RBCs (0.3% parasitemia and 4% haematocrit) in screening medium (identical to supplemented medium above except no serum was added) was exposed to serial drug dilutions. Plates were incubated at 37 °C and gassed with 93% N2, 4% CO2 and 3% O2 for 72 h. Following incubation, 10 × SYBR Green I (Invitrogen; supplied in 10,000 × concentration) in lysis buffer ([…], 5 mM EDTA, 0.16% Saponin wt per vol and 1.6% Triton X vol per vol) was added to the wells and the plates were incubated overnight at room temperature before plate reading. EC50 assays were repeated three times, taking the average EC50 value from each assay set, and removing any outliers using a single iteration of Grubbs' test, eliminating values with z-scores above the critical z-value (α=0.05). The raw EC50 values for synchronized parasites assayed in a 384-well format are listed in Supplementary Data 4. The raw EC50 values for asynchronous parasites assayed in a 96 or 1536-well format are listed in Supplementary Data 5.
(§3) EC50 values for each strain were compared with those of the corresponding parent strain to determine fold-shift changes and identify resistance. To minimize the cause variance between assays, all comparisons were conducted between strains assayed under identical conditions. A one-way ANOVA followed by a Dunnet's post-test was conducted in GraphPad Prism to identify significant changes between the parent and resistant strain.

For test [2], the system named is NITD609-R2 (PfATP4 T418N and P990R, parent Dd2). As to the kind of experiment: Cross-resistance EC50 assay, NITD609-R2. The note with it: Plasmodium falciparum, SYBR green 72 hour assay, asynchronized parasites, 96-well or 1536-well format.
From the text: as §1, §2, §3

Test [3] has as its system TM90C2A (DHFR, folate pathway; compared with 3D7). Put plainly: Cross-resistance EC50 assay, TM90C2A. The conditions noted are these: Plasmodium falciparum, 48 h, read-out: TM90C2A (3D7 Parent) Average EC50.
From the text: To evaluate potential overlapping activity against known antimalarial drug targets, we performed dose-response studies with each compound against our assembled set of drug-resistant lines and their corresponding parents, in an asexual blood stage proliferation assay (Table 1). Comparisons were made to the drug-sensitive strain 3D7 when a parent was unavailable (TM90C2A, W2 and Dd2). As laboratories conducted EC50 assays with different strains and protocols, all comparisons were made between assays from the same laboratory and under the same assay conditions. Compounds displaying >5-fold EC50 shifts relative to the parent or sensitive strain were flagged as having potentially non-novel targets. Average fold shifts per strain ranged from 0.82 to 2.34, with a median of 1.23 indicating there was not common resistance to any one resistant clone. No resistance patterns were observed when classifying the compounds based on chemical structure, but this was not surprising given the diversity of compounds chosen. On the other hand, given that these confirmed compounds were derived from larger unconfirmed hit lists to which some filtration criteria may have been applied (for example, elimination of obvious dihydrofolate reductase inhibitors[32]), some[10][11][12][13] pre-existing bias may exist in the set.
The 48-h assay was carried out in a 96-well format following standard methods using the ^3H-hypoxanthine incorporation assay. The raw EC50 values corresponding to this assay can be found in Supplementary Data 3. Briefly, this assay relies on the parasite incorporation of labelled hypoxanthine that is proportional to P. falciparum growth. A culture of parasitized RBCs (0.5% parasitemia with a percentage of ring stage higher than 70% of total parasitemia, 2.0% haematocrit) in RPMI-1640, […] and 5 μM hypoxanthine was exposed to drug serial dilutions. Plates were incubated for 24 h at 37 °C, 5% CO2, 5% O2 and 90% N2. After 24 h of incubation, ^3H-hypoxanthine was added and plates were incubated for an additional 24-h period. After that, parasites were harvested on a glass fibre filter using a TOMTEC Cell Harvester 96. Filters were dried and melt-on scintillator sheets were used to determine the incorporation of ^3H-hypoxanthine. Radioactivity was measured using a microbeta counter. Data were normalized using the incorporation of the positive (parasitized RBCs without drug) and negative (same culture with artesunate at 2 μM) controls. All assays were conducted in triplicate using three independently grown cultures, and EC50 values were determined using the XLfit add-in module for Excel (version 2.3.1) from Grafit (version 5.3.1.3), where parameter h is the assay hill slope, x is the compound concentration and y is the inhibition of growth effect. The XLfit equation is: […]
as §3

Usually EC50 stands for the midpoint of the concentration-response curve.

Turning to `COc1ccc(NC(=O)N2CCCCN3[C@H](CN)[C@H](c4ccc(C#Cc5ccccc5)cc4)[C@@H]3C2)cc1` [BRD1095], the EC50 in test [1] stood at 12 nM; in test [2], 0.001 µM.

In the case of `CCN(CC)CCn1c(=N)n(CC(O)c2ccc(Cl)c(Cl)c2)c2ccccc21.Cl` (centres unmarked) [MMV000248], the EC50 in test [1] was determined as 329 nM; in test [3] it was 466 nM; in test [2], 0.252 µM.

As to `CCOc1cc2c(cc1OCC)C(c1cc(Cl)ccc1O)NCC2` (centres unmarked) [MMV000478], the EC50 in test [1] turned out to be 785 nM; in test [3], 1440 nM; in test [2], 0.661 µM.

As to `CCCOCc1cc(CN2CCN(c3cccc(Cl)c3)CC2)c(O)c2ncccc12` [MMV000787], the EC50 in test [1] was determined as 699 nM; in test [3], 1040 nM; in test [2] it was 1.25 µM.

For `CN1CCN(c2ccc(Nc3c4ccccc4nc4ccccc34)cc2)CC1` [MMV006172], the EC50 in test [1] is 75 nM; in test [3], 162 nM; in test [2] it was 0.242 µM.

With `CCCN(CCC)CC(O)COc1ccccc1C(=O)Nc1ccccc1` (centres unmarked) [MMV006455], the figures for the EC50 in test [1], in test [3] and in test [2] were 1220 nM, 377 nM and 0.258 µM, respectively.

Turning to `COc1cc2cc(C(=O)Nc3ccccc3)c(N)nc2cc1OC` [MMV006767], the EC50 in test [1] was found to be 1480 nM; in test [3], 2870 nM; in test [2] it was 0.106 µM.

Consider `Cc1cc(Nc2ccc(OCc3ccccc3)cc2)nc2cc(O)ccc12` [MMV007181], for which the values for the EC50 in test [1], in test [3] and in test [2] were 133 nM, 278 nM and 0.128 µM, respectively.

For the compound `Brc1ccc(Nc2nc3ccccc3nc2Nc2ccc(Br)cc2)cc1` [MMV007224], the half-maximal effective concentration (EC50) in test [1] was 287 nM; in test [3] it was 154 nM; in test [2], 0.754 µM.

Turning to `Cc1ccc(Cn2c(N3CCC(C(=O)NCc4cccs4)CC3)nc3ccccc32)cc1` [MMV007564], the EC50 in test [1] was 430 nM; in test [3] it was 655 nM; in test [2], 0.705 µM.

Consider `Cc1c(C)n(Cc2ccc(F)cc2)c2ccc(C(=O)NCc3ccco3)cc12` [MMV008149], for which the EC50 in test [1] was found to be 139 nM; in test [3] it was 908 nM; in test [2], 0.934 µM.

Regarding `OC(CNC1CCCCC1)Cn1c2ccccc2c2ccccc21` (centres unmarked) [MMV009063], the EC50 in test [1] worked out at 315 nM; in test [3], 537 nM; in test [2] it was 0.411 µM.

Turning to `CCN(CC)S(=O)(=O)c1ccc(-c2csc(Nc3ccc(C)c(C)c3)n2)cc1` [MMV009108], the EC50 in test [1] came out at 404 nM; in test [3], 445 nM; in test [2], 0.574 µM.

For the compound `COC(=O)c1ccc(C2C3=C(O)CC(c4ccc(F)cc4)CC3=Nc3ccccc3N2C(=O)c2ccccc2)cc1` (centres unmarked) [MMV011438], the EC50 came to 174 nM in test [1], 322 nM in test [3] and 0.306 µM in test [2].

For the compound `Nc1ccc(-c2nc3cc(Oc4ccc(Oc5ccc6[nH]c(-c7ccc(N)cc7)nc6c5)cc4)ccc3[nH]2)cc1` [MMV011895], the EC50 in test [1] stood at 206 nM; in test [3] it was 356 nM; in test [2] it was 0.56 µM.

With `COCCNCC(O)Cn1c2ccc(Cl)cc2c2cc(Cl)ccc21` (centres unmarked) [MMV019017], the concentration giving a half-maximal response (EC50) in test [1] was 582 nM; in test [3] it was 868 nM; in test [2], 0.456 µM.

Turning to `COc1ccccc1CNC(=O)CCn1c(=O)[nH]c2ccsc2c1=O` [MMV019066], the EC50 in test [1] came to 63 nM; in test [3], 1620 nM; in test [2], 0.014 µM.

`Cl.c1ccc2c(NCCCCCCNc3c4c(nc5ccccc35)CCCC4)c3c(nc2c1)CCCC3` [MMV019555]: the results for the EC50 in test [1], in test [3] and in test [2] were 166 nM, 280 nM and 0.188 µM, respectively.

In the case of `COc1ccc(N2CCN(C(CNC(=O)C3CCCCC3)c3ccc4c(c3)OCO4)CC2)cc1` (centres unmarked) [MMV019662], the EC50 in test [1] was 356 nM; in test [3] it was 209 nM; in test [2], 0.512 µM.

Take `COc1ccc(-c2nc(NC(=O)Cc3ccc4c(c3)OCCO4)sc2C)cc1` [MMV019719]: the EC50 in test [1] turned out to be 244 nM; in test [3], 210 nM; in test [2], 0.328 µM.

As for `Cc1ccc(Oc2ncccc2C(=O)Cc2cccc3cccnc23)c(C)c1` [MMV020746], the EC50 in test [1] amounted to 142 nM; in test [3] it was 201 nM; in test [2] it was 2.14 µM.

With `COc1cc(-c2nc(-c3ccccc3)c(-c3ccccc3)[nH]2)cc(OC)c1O` [MMV020750], the values for the EC50 in test [1], in test [3] and in test [2] were 725 nM, 674 nM and 1.22 µM, respectively.

Take `CCCCCCCN(Cc1ccc(OC(C)(C)C(=O)OCC)cc1)C(=O)Nc1ccc(Cl)cc1OCC` [MMV021735]: the EC50 in test [1] came out at 259 nM; in test [3], 891 nM; in test [2], 0.773 µM.

`CN(C)Cc1ccc(-c2cc3c(-c4ccc(CN(C)C)cc4)ccnc3[nH]2)cc1.O=C(O)C(F)(F)F` [MMV022224]: the EC50 in test [1] worked out at 320 nM; in test [3], 738 nM; in test [2] it was 0.406 µM.

For the compound `Nc1ncc(-c2cn[nH]c2)cc1-c1nc2ccc(F)cc2[nH]1` [MMV023367], the EC50 in test [1] is 421 nM; in test [3], 445 nM; in test [2], 1.6 µM.

In the case of `CN(C)S(=O)(=O)c1cc(-c2ccc3nccc(-c4cccc(S(N)(=O)=O)c4)c3c2)cnc1N` [MMV024038], the EC50 in test [1] came to 107 nM; in test [3], 194 nM; in test [2], 0.958 µM.

Consider `Cc1ccc(S(=O)(=O)n2cc(-c3ccnc(N)c3)c3cc(Br)cnc32)cc1` [MMV024114], for which the EC50 was determined as 499 nM in test [1], 1050 nM in test [3] and 1.86 µM in test [2].

Regarding `CNCc1ccc2nc(-c3coc(Cc4cc(Cl)ccc4OCC(C)C)n3)[nH]c2c1.Cl.Cl` [MMV026596], the EC50 in test [1] is 451 nM; in test [3], 267 nM; in test [2], 0.206 µM.

As to `COc1cc(-c2nc(-c3ccccc3)c(-c3ccccc3)[nH]2)ccc1OCCN(C)C` [MMV027496], the EC50 in test [1] was determined as 211 nM; in test [3], 300 nM; in test [2], 0.755 µM.

For `Cc1nc2ccc3ccc(CNc4ccc(C(=O)CC(CCC(=O)O)C(=O)O)cc4)cc3c2c(=O)[nH]1.Cl` (centres unmarked) [MMV027634], the results for the EC50 in test [1], in test [3] and in test [2] were 38 nM, 64 nM and 0.14 µM, respectively.

Regarding `CC(C)c1cccc(C(NC(=O)C2Cc3ccccc3CN2C(=O)c2cccc(N3CCOCC3)c2)C2CCCC2)c1` (centres unmarked) [MMV028038], the values for the EC50 in test [1], in test [3] and in test [2] were 314 nM, 287 nM and 0.612 µM, respectively.

As for `CN(C)CCCN(C)C(=O)C1Cc2cc(-c3ccccc3)ccc2N1S(=O)(=O)c1ccccc1` (centres unmarked) [MMV028895], the EC50 in test [1] amounted to 240 nM; in test [3] it was 253 nM; in test [2] it was 2.17 µM.
